Laboratory results published in US20200017496A1 (priority 2017, published 2020).
Values after ≈ are worked out from the molar mass of the structure shown.

Legend:
[1] = Aqueous solubility by visual inspection (Method 12); details: for solubility: water, thermodynamic from solid
[2] = Hydrolysis kinetics in buffers at room temperature by 19F-NMR, 1 mg/ml (Method 9); type: physicochemical
Protocol: Method 9: Hydrolysis Kinetics in Buffers at Room Temperature by ^19F-NMR, 1 mg/ml (Table 9)
Samples were prepared by solubilizing the ester compound (1 mg) in 900 μL of D2O and 100 μL of adequate buffer (Citrate 100 mM pH 5, Phosphate 100 mM pH 6 and Phosphate 100 mM pH 7.4). After a short sonication to fasten solubilization, the hydrolysis curve of the esters was generated by measuring and comparing the ^19F-NMR signal integrations of both species (ester compound disappearing and the acid form AF1 appearing). T10 and T50, times for respectively 10% and 50% of ester hydrolysis, were determined by interpolation of the hydrolysis curves.

[3] = Hydrolysis kinetics in buffers at 37° C., 4 μg/ml (LC-MS, Method 8); type: physicochemical
Protocol: (§1) Method 8: Hydrolysis Kinetics in Buffers or Plasma Samples at 37° C., 4 μg/ml (Table 9)
(§2) Test compounds were prepared in DMSO at 0.8 mg/ml (relative to the acid AF1). To obtain a concentration of 4 μg/ml, one microliter of test compounds or AF1 was dissolved in 199 μl of buffer or blank plasma. For test compounds, plasma samples and/or buffer samples were kept at 37° C. during 2 h, and 20 μL of mixture were collected at 0 minutes (before heating to 37° C.), 5 minutes, 10 minutes, 20 minutes, 30 minutes, 45 minutes, 60 minutes and 120 minutes. For AF1, 20 μl of plasma samples and/or buffer samples were collected at 0 minutes. All plasma samples were protein precipitated using 3-25 fold volume of acetonitrile, shaken and centrifuged for 20 minutes at 15 000×g, diluted with a varying volume of deionized water. All buffer samples were diluted with a varying volume of deionized water/acetonitrile. The formation of AF1 from test compounds was quantified using LC-MS/MS.

[4] = in vitro; type: in vitro ADME; details: plasma
Protocol: as §1, §2

In the case of `CCOC(=O)C(F)(F)ON1C(=O)N2C[C@H]1CC[C@H]2C(N)=O` [AF1-Et], the solubility [1] is reported as over 1000 µg/mL, the “Hydrolysis at 1 mg/ml at room Temperature (NMR) T10 (10% degradation time)” value (“Hydrolysis at 1 mg/ml … (10% degradation time)” below) ([2]; Citrate 10 mM pH 5.0) is reported as 9 min and the “Hydrolysis at 1 mg/ml at room Temperature (NMR) T50 (50% degradation time)” value (shortened to “Hydrolysis at 1 mg/ml … (50% degradation time)”) ([2]; Citrate 10 mM pH 5.0) is reported as 1 h. The “Hydrolysis at 4 μg/ml at 37° C. (LC-MS) T50 (50% degradation time)” value (“Hydrolysis at 4 μg/ml … (50% degradation time)” for short) ([3]; Citrate 10 mM pH 5.0) was under 1 min, the “Hydrolysis at 4 μg/ml … (50% degradation time)” value ([3]; Phosphate 10 mM pH 6.0) was under 1 min and the “Hydrolysis at 4 μg/ml … (50% degradation time)” value ([3]; Phosphate 10 mM pH 7.4) was under 1 min.
With `NC(=O)[C@@H]1CC[C@@H]2CN1C(=O)N2OC(F)(F)C(=O)OC1C2CC3CC(C2)CC1C3` (stereo partly drawn) [Example 3, 2-adamantyl 2-[[(2S,5R)-2-carbamoyl-7-oxo-1,6-diazabicyclo[3.2.1]octan-6-yl]oxy]-2,2-difluoro-acetate] the “Aqueous Solubility at room temperature in H2O” value ([1]; room temperature, H2O, visual inspection) was “Low solubility”.
In the case of `COCC(C)(C)OC(=O)C(F)(F)ON1C(=O)N2C[C@H]1CC[C@H]2C(N)=O` [Example 7, (2-methoxy-1,1-dimethyl-ethyl) 2-[[(2S,5R)-2-carbamoyl-7-oxo-1,6-diazabicyclo[3.2.1]octan-6-yl]oxy]-2,2-difluoro-acetate], the solubility [1] is reported as 6000 µg/mL (≈ 16.4 mM), the “Hydrolysis at 1 mg/ml … (10% degradation time)” value ([2]; Citrate 10 mM pH 5.0) is reported as 210 min and the “Hydrolysis at 1 mg/ml … (50% degradation time)” value ([2]; Citrate 10 mM pH 5.0) is reported as 27 h. For the same compound, the “Hydrolysis at 1 mg/ml … (10% degradation time)” value ([2]; Phosphate 10 mM pH 6.0) was 120 min, the “Hydrolysis at 1 mg/ml … (50% degradation time)” value ([2]; Phosphate 10 mM pH 6.0) was 20 h and the “Hydrolysis at 1 mg/ml … (10% degradation time)” value ([2]; Phosphate 10 mM pH 7.4) was 37 min. The “Hydrolysis at 1 mg/ml … (50% degradation time)” value ([2]; Phosphate 10 mM pH 7.4) was 3.2 h, the “Hydrolysis at 4 μg/ml … (50% degradation time)” value ([3]; Citrate 10 mM pH 5.0) was 109 min and the “Hydrolysis at 4 μg/ml … (50% degradation time)” value ([3]; Phosphate 10 mM pH 7.4) was 23 min. The half-life at 4 µg/ml ([4]; dog) was 4 min, the half-life at 4 µg/ml ([4]; human) was 7 min and the half-life at 4 µg/ml ([4]; mouse) was under 1 min. For the same compound, the half-life at 4 µg/ml ([4]; rat) was under 1 min.
With `CC1(OC(=O)C(F)(F)ON2C(=O)N3C[C@H]2CC[C@H]3C(N)=O)CCOCC1` [Example 8, (4-methyltetrahydropyran-4-yl) 2-[[(2S,5R)-2-carbamoyl-7-oxo-1,6-diazabicyclo[3.2.1]octan-6-yl]oxy]-2,2-difluoro-acetate] the solubility [1] was 1000 µg/mL (≈ 2.65 mM), the “Hydrolysis at 1 mg/ml … (10% degradation time)” value ([2]; Citrate 10 mM pH 5.0) was 402 min and the “Hydrolysis at 1 mg/ml … (50% degradation time)” value ([2]; Citrate 10 mM pH 5.0) was 43 h. For the same compound, the “Hydrolysis at 1 mg/ml … (10% degradation time)” value ([2]; Phosphate 10 mM pH 6.0) was 162 min, the “Hydrolysis at 1 mg/ml … (50% degradation time)” value ([2]; Phosphate 10 mM pH 6.0) was 21 h and the “Hydrolysis at 1 mg/ml … (10% degradation time)” value ([2]; Phosphate 10 mM pH 7.4) was 40 min. The “Hydrolysis at 1 mg/ml … (50% degradation time)” value ([2]; Phosphate 10 mM pH 7.4) was 4.5 h, the “Hydrolysis at 4 μg/ml … (50% degradation time)” value ([3]; Citrate 10 mM pH 5.0) was over 120 min and the “Hydrolysis at 4 μg/ml … (50% degradation time)” value ([3]; Phosphate 10 mM pH 7.4) was 39 min. It also gave a half-life at 4 µg/ml ([4]; dog) of 8 min, a half-life at 4 µg/ml ([4]; human) of 11 min and a half-life at 4 µg/ml ([4]; mouse) of under 1 min. For the same compound, the half-life at 4 µg/ml ([4]; rat) was under 1 min.
In the case of `COCCOCC(C)(C)OC(=O)C(F)(F)ON1C(=O)N2C[C@H]1CC[C@H]2C(N)=O` [Example 9], the solubility [1] is reported as 6900 µg/mL (≈ 16.9 mM), the “Hydrolysis at 1 mg/ml … (10% degradation time)” value ([2]; Citrate 10 mM pH 5.0) is reported as 192 min and the “Hydrolysis at 1 mg/ml … (50% degradation time)” value ([2]; Citrate 10 mM pH 5.0) is reported as 20 h. For the same compound, the “Hydrolysis at 1 mg/ml … (10% degradation time)” value ([2]; Phosphate 10 mM pH 6.0) was 138 min, the “Hydrolysis at 1 mg/ml … (50% degradation time)” value ([2]; Phosphate 10 mM pH 6.0) was 17 h and the “Hydrolysis at 1 mg/ml … (10% degradation time)” value ([2]; Phosphate 10 mM pH 7.4) was 21 min. The “Hydrolysis at 1 mg/ml … (50% degradation time)” value ([2]; Phosphate 10 mM pH 7.4) was 2.6 h.
For `COCC(C)(COC)OC(=O)C(F)(F)ON1C(=O)N2C[C@H]1CC[C@H]2C(N)=O` [Example 10, [2-methoxy-1-(methoxymethyl)-1-methyl-ethyl]2-[[(2S,5R)-2-carbamoyl-7-oxo-1,6-diazabicyclo[3.2.1]octan-6-yl]oxy]-2,2-difluoro-acetate], the solubility [1] was 4500 µg/mL (≈ 11.4 mM), the “Hydrolysis at 1 mg/ml … (10% degradation time)” value ([2]; Citrate 10 mM pH 5.0) was 210 min and the “Hydrolysis at 1 mg/ml … (50% degradation time)” value ([2]; Citrate 10 mM pH 5.0) was 32 h. For the same compound, the “Hydrolysis at 1 mg/ml … (10% degradation time)” value ([2]; Phosphate 10 mM pH 6.0) was 90 min, the “Hydrolysis at 1 mg/ml … (50% degradation time)” value ([2]; Phosphate 10 mM pH 6.0) was 16 h and the “Hydrolysis at 1 mg/ml … (10% degradation time)” value ([2]; Phosphate 10 mM pH 7.4) was 12 min. The “Hydrolysis at 1 mg/ml … (50% degradation time)” value ([2]; Phosphate 10 mM pH 7.4) was 1 h.
With `COCC1(OC(=O)C(F)(F)ON2C(=O)N3C[C@H]2CC[C@H]3C(N)=O)CCOCC1` [Example 11, [4-(methoxymethyl)tetrahydropyran-4-yl]2-[[(2S,5R)-2-carbamoyl-7-oxo-1,6-diazabicyclo[3.2.1]octan-6-yl]oxy]-2,2-difluoro-acetate] the solubility [1] was 1300 µg/mL (≈ 3.19 mM), the “Hydrolysis at 1 mg/ml … (10% degradation time)” value ([2]; Citrate 10 mM pH 5.0) was 372 min and the “Hydrolysis at 1 mg/ml … (50% degradation time)” value ([2]; Citrate 10 mM pH 5.0) was over 41 h. The “Hydrolysis at 1 mg/ml … (10% degradation time)” value ([2]; Phosphate 10 mM pH 6.0) was 120 min, the “Hydrolysis at 1 mg/ml … (50% degradation time)” value ([2]; Phosphate 10 mM pH 6.0) was 16 h and the “Hydrolysis at 1 mg/ml … (10% degradation time)” value ([2]; Phosphate 10 mM pH 7.4) was 15 min. The “Hydrolysis at 1 mg/ml … (50% degradation time)” value ([2]; Phosphate 10 mM pH 7.4) was 1.3 h.
With `NC(=O)[C@@H]1CC[C@@H]2CN1C(=O)N2OC(F)(F)C(=O)OC1CCOCC1` [Example 12, tetrahydropyran-4-yl 2-[[(2S,5R)-2-carbamoyl-7-oxo-1,6-diazabicyclo[3.2.1]octan-6-yl]oxy]-2,2-difluoro-acetate] the solubility [1] was 500 to 1000 µg/mL (≈ 1.38 to 2.75 mM), the “Hydrolysis at 1 mg/ml … (10% degradation time)” value ([2]; Citrate 10 mM pH 5.0) was 15 min and the “Hydrolysis at 1 mg/ml … (50% degradation time)” value ([2]; Citrate 10 mM pH 5.0) was 1.3 h. For the same compound, the “Hydrolysis at 4 μg/ml … (50% degradation time)” value ([3]; Citrate 10 mM pH 5.0) was under 1 min, the “Hydrolysis at 4 μg/ml … (50% degradation time)” value ([3]; Phosphate 10 mM pH 6.0) was under 1 min and the “Hydrolysis at 4 μg/ml … (50% degradation time)” value ([3]; Phosphate 10 mM pH 7.4) was under 1 min.
For `COCC(COC)OC(=O)C(F)(F)ON1C(=O)N2C[C@H]1CC[C@H]2C(N)=O` [Example 13, [2-methoxy-1-(methoxymethyl)ethyl]2-[[(2S,5R)-2-carbamoyl-7-oxo-1,6-diazabicyclo[3.2.1]octan-6-yl]oxy]-2,2-difluoro-acetate], the solubility [1] was over 1000 µg/mL, the “Hydrolysis at 1 mg/ml … (10% degradation time)” value ([2]; Citrate 10 mM pH 5.0) was 8 min and the “Hydrolysis at 1 mg/ml … (50% degradation time)” value ([2]; Citrate 10 mM pH 5.0) was 0.933 h. For the same compound, the “Hydrolysis at 4 μg/ml … (50% degradation time)” value ([3]; Citrate 10 mM pH 5.0) was under 1 min, the “Hydrolysis at 4 μg/ml … (50% degradation time)” value ([3]; Phosphate 10 mM pH 6.0) was under 1 min and the “Hydrolysis at 4 μg/ml … (50% degradation time)” value ([3]; Phosphate 10 mM pH 7.4) was under 1 min.
For `COCCCC(C)(C)OC(=O)C(F)(F)ON1C(=O)N2C[C@H]1CC[C@H]2C(N)=O` [Example 14, (4-methoxy-1,1-dimethyl-butyl) 2-[[(2S,5R)-2-carbamoyl-7-oxo-1,6-diazabicyclo[3.2.1]octan-6-yl]oxy]-2,2-difluoro-acetate], the solubility [1] was 5100 µg/mL (≈ 13 mM), the “Hydrolysis at 1 mg/ml … (10% degradation time)” value ([2]; Citrate 10 mM pH 5.0) was 5 min and the “Hydrolysis at 1 mg/ml … (50% degradation time)” value ([2]; Citrate 10 mM pH 5.0) was 0.45 h. The “Hydrolysis at 1 mg/ml … (10% degradation time)” value ([2]; Phosphate 10 mM pH 6.0) was under 25 min, the “Hydrolysis at 1 mg/ml … (50% degradation time)” value ([2]; Phosphate 10 mM pH 6.0) was under 2 h and the “Hydrolysis at 1 mg/ml … (10% degradation time)” value ([2]; Phosphate 10 mM pH 7.4) was 7 min. For the same compound, the “Hydrolysis at 1 mg/ml … (50% degradation time)” value ([2]; Phosphate 10 mM pH 7.4) was 0.567 h, the “Hydrolysis at 4 μg/ml … (50% degradation time)” value ([3]; Citrate 10 mM pH 5.0) was under 5 min and the “Hydrolysis at 4 μg/ml … (50% degradation time)” value ([3]; Phosphate 10 mM pH 6.0) was under 5 min. The “Hydrolysis at 4 μg/ml … (50% degradation time)” value ([3]; Phosphate 10 mM pH 7.4) was under 5 min.
For `CCCN(CCC)[C@H]1CC[C@H](OC(=O)C(F)(F)ON2C(=O)N3C[C@H]2CC[C@H]3C(N)=O)CC1` [Example 15, [4-(dipropylamino)cyclohexyl]2-[[(2S,5R)-2-carbamoyl-7-oxo-1,6-diazabicyclo[3.2.1]octan-6-yl]oxy]-2,2-difluoro-acetate], the solubility [1] was over 1000 µg/mL, the “Hydrolysis at 1 mg/ml … (10% degradation time)” value ([2]; Citrate 10 mM pH 5.0) was 7 min and the “Hydrolysis at 1 mg/ml … (50% degradation time)” value ([2]; Citrate 10 mM pH 5.0) was 0.567 h. The “Hydrolysis at 4 μg/ml … (50% degradation time)” value ([3]; Citrate 10 mM pH 5.0) was under 1 min, the “Hydrolysis at 4 μg/ml … (50% degradation time)” value ([3]; Phosphate 10 mM pH 6.0) was under 1 min and the “Hydrolysis at 4 μg/ml … (50% degradation time)” value ([3]; Phosphate 10 mM pH 7.4) was under 1 min.
